According to paper PMC10600247, “Impact of C- and N-terminal protection on the stability, metal chelation and antimicrobial properties of calcitermin” (Scientific Reports, 2023):
Residues, ends and D or L forms follow the SMILES beside them.

Key:
S. aureus (ATCC 25293) = assay: In vitro anti-S. aureus CFU assay; type: cell-based, Staphylococcus aureus; conditions: 3 h, pH 5.4; for mean CFU number ± S.D.: per 0.1 mL
Outline: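 Peptides (final 0.128, 0.064, 0.032 mg/mL), alone or with ZnCl2 or CuCl2 at M:L 0.9:1, were incubated with 10^3 CFU/well in PBS pH 5.4 plus 1.5% TSB at 37 °C with slow rocking for 3 and 24 h. Aliquots were plated on TSA and CFU counted after 24 h; triplicate.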

[1] = T = 298 K, I = 0.1 M (KCl), charges omitted
Excerpt: Stability constants for proton and metal complexes were obtained from pH-metric titration curves registered at T = 298 K and ionic strength 0.1 M (KCl). The potentiometric apparatus was previously described. Solutions were titrated with 0.1 M carbonate-free KOH. The electrode was daily calibrated for hydrogen ion concentration by titrating HNO3 with the standard base solution, under the same experimental conditions as above. The asymmetry potential and the slope of the electrode couple were computed by means of […][41] and Glee[42] programs. The purities and exact concentrations of the ligand solutions were determined by the Gran method. The […][44] program was employed for the overall formation constant (β) calculations, referred to the following equilibrium equation: pM + qL + rH ⇆ MpLqHr (charges omitted; p is 0 in the case of ligand protonation; r can be negative). The computed standard deviations (referring to random errors only) were given by the program itself and are shown in parentheses as uncertainties on the last significant figure. Hydrolysis constants for metal ions were taken from the literature[45],[46]. The distribution and competition diagrams were computed using the HYSS program.
1. Wild-type calcitermin: thermodynamic data
Wild-type calcitermin (WT) has been previously investigated by our research group in aqueous solutions and ionic medium NaClO4.1 For the sake of comparison, potentiometric studies of WT and its copper and zinc complexes have been performed in a different ionic medium (KCl 0.1 M). The study of the speciation under different experimental conditions, changing ionic medium and metal-ligand ratio, is essential to comprehensively describe the thermodynamics of calcitermin, which is usually found in multicomponent media like biological fluids.
Table S1. Equilibrium constants for protonation of WT and its Cu2+ and Zn2+ complex formation at T = 298 K and I = 0.1 M (KCl). Values in parentheses are standard deviations on the last significant figure.

[2] = peptide 0.032 mg/mL + CuCl2 (0.9:1)
[3] = peptide 0.032 mg/mL + ZnCl2 (0.9:1)
[4] = peptide 0.064 mg/mL + CuCl2 (0.9:1)
[5] = peptide 0.064 mg/mL + ZnCl2 (0.9:1)
[6] = peptide 0.128 mg/mL + CuCl2 (0.9:1)

CC[C@H](C)[C@H](NC(=O)[C@H](C)NC(=O)[C@@H](N)C(C)C)C(=O)N[C@@H](C)C(=O)N[C@@H](CC(C)C)C(=O)N[C@@H](CCCCN)C(=O)N[C@@H](C)C(=O)N[C@@H](C)C(=O)N[C@@H](Cc1c[nH]cn1)C(=O)N[C@@H](Cc1ccc(O)cc1)C(=O)N[C@@H](Cc1c[nH]cn1)C(=O)N[C@H](C(=O)N[C@@H](Cc1c[nH]cn1)C(=O)N[C@@H](CCCCN)C(=O)N[C@@H](CCC(=O)O)C(=O)O)[C@@H](C)O [WT, VAIALKAAHYHTHKE, reference compound] (H-VAIALKAAHYHTHKE-OH)
CFU decrease/increase with respect to untreated controls (S. aureus (ATCC 25293); [2]): +30% | mean CFU number ± S.D. (S. aureus (ATCC 25293); [2]): 209 ± 44 CFU | CFU decrease/increase with respect to untreated controls (S. aureus (ATCC 25293); [3]): +5% | mean CFU number ± S.D. (S. aureus (ATCC 25293); [3]): 169 ± 40 CFU | CFU decrease/increase with respect to untreated controls (S. aureus (ATCC 25293); [4]): +9% | mean CFU number ± S.D. (S. aureus (ATCC 25293); [4]): 175 ± 30 CFU | CFU decrease/increase with respect to untreated controls (S. aureus (ATCC 25293); [5]): -14% | mean CFU number ± S.D. (S. aureus (ATCC 25293); [5]): 139 ± 20 CFU | CFU decrease/increase with respect to untreated controls (S. aureus (ATCC 25293); [6]): +42% | mean CFU number ± S.D. (S. aureus (ATCC 25293); [6]): 229 ± 55 CFU | CFU decrease/increase with respect to untreated controls (S. aureus (ATCC 25293); peptide 0.128 mg/mL + ZnCl2 (0.9:1), listed as WT calcitermin): -41% | mean CFU number ± S.D. (S. aureus (ATCC 25293); peptide 0.128 mg/mL + ZnCl2 (0.9:1)): 96 ± 21 CFU | CFU decrease/increase with respect to untreated controls (S. aureus (ATCC 25293); peptide alone 0.032 mg/mL): -9.3% | mean CFU number ± S.D. (S. aureus (ATCC 25293); peptide alone 0.032 mg/mL): 146 ± 7 CFU | CFU decrease/increase with respect to untreated controls (S. aureus (ATCC 25293); peptide alone 0.064 mg/mL): -1.2% | mean CFU number ± S.D. (S. aureus (ATCC 25293); peptide alone 0.064 mg/mL): 159 ± 45 CFU | CFU decrease/increase with respect to untreated controls (S. aureus (ATCC 25293); peptide alone 0.128 mg/mL): -1.8% | mean CFU number ± S.D. (S. aureus (ATCC 25293); peptide alone 0.128 mg/mL): 158 ± 59 CFU | logβ [CuH2L] [1]: 33.77(4) | logβ [CuH3L] [1]: 40.77(4) | logβ [CuH4L] [1]: 46.97(3) | logβ [CuH5L] [1]: 52.07(3) | logβ [CuH6L] [1]: 56.40(6) | logβ [CuH-1L] [1]: 6.90(5) | logβ [CuH-3L] [1]: -14.19(5) | logβ [CuHL] [1]: 26.20(4) | logβ [CuL] [1]: 16.83(5) | logβ [ZnH2L] [1]: 28.59(5) | logβ [ZnH3L] [1]: 36.47(5) | logβ [ZnH4L] [1]: 43.55(3) | logβ [ZnH5L] [1]: 49.30(8) | logβ [ZnH-1L] [1]: -0.2(1) | logβ [ZnH-2L] [1]: -10.8(1) | logβ [ZnHL] [1]: 20.11(6) | logβ [ZnL] [1]: 10.35(8) | logK, line of [CuH2L] ([1]; Table S1): 7.00 | logK, line of [CuH3L] ([1]; Table S1): 6.21 | logK, line of [CuH4L] ([1]; Table S1): 5.09 | logK, line of [CuH5L] ([1]; Table S1): 4.34 | logK, line of [CuH-1L] ([1]; Table S1): 9.93 | logK, line of [CuHL] ([1]; Table S1): 7.58 | logK, line of [CuL] ([1]; Table S1): 9.37 | logK, line of [ZnH2L] ([1]; Table S1): 7.87 | logK, line of [ZnH3L] ([1]; Table S1): 7.08 | logK, line of [ZnH4L] ([1]; Table S1): 5.75 | logK, line of [ZnH-1L] ([1]; Table S1): 10.5 | logK, line of [ZnH-2L] ([1]; Table S1): 10.7 | logK, line of [ZnHL] ([1]; Table S1): 8.48 | logK, line of [ZnL] ([1]; Table S1): 9.77
